Assay results published in PMC5338263, “GS-5734 and its parent nucleoside analog inhibit Filo-, Pneumo-, and Paramyxoviruses” (Scientific Reports, 2017).
“Also recorded” adds a separate entry of the source. Read-outs that look alike come from different tables or passages of the source.

Columns and labels:
EBOV Rec. Makona-ZSG [1] = tested on: EBOV Rec. Makona-ZSG
EBOV Rec. Mayinga-Gluc = experiment: microbe, parasite or virus in culture; details: Zaire ebolavirus, Huh-7
[2] = tested on: MuV IA 2006 (Mumps virus); experiment: in vitro; details: human
NiV M-1999 (Nipah virus) = experiment: in vitro; details: human
[3] = tested on: EBOV Makona (Ebola virus); experiment: in vitro; details: human
[4] = Cell viability assay (CellTiter-Glo 2.0), Huh7; details: human, uninfected Huh7 cells
EBOV Makona [5] = experiment: microbe, parasite or virus in culture; details: Zaire ebolavirus
MuV IA 2006 = experiment: microbe, parasite or virus in culture; details: Mumps orthorubulavirus, HeLa
NiV M-1999 [6] = tested on: NiV M-1999
[7] = tested on: RSV Rec. rgRSV224 (A2) (respiratory syncytial virus); experiment: in vitro; details: human
NiV Rec. M-Luc2AM [8] = tested on: NiV Rec. M-Luc2AM
hPIV3 Rec. JS-GFP [9] = experiment: microbe, parasite or virus in culture; details: Human respirovirus 3, HeLa
EBOV Rec. Makona-ZSG [10] = experiment: microbe, parasite or virus in culture; details: Zaire ebolavirus, Huh-7
NiV M-1999 [11] = experiment: microbe, parasite or virus in culture; details: Henipavirus nipahense
[12] = tested on: EBOV Rec. Mayinga-GFP (Ebola virus); experiment: in vitro; details: human
HCV = details: cited from earlier work
TBEV Hypr = experiment: microbe, parasite or virus in culture; details: Tick-borne encephalitis virus, A549
[13] = tested on: NiV Rec. M-Luc2AM (Nipah virus); experiment: in vitro; details: human
hPIV3 Rec. JS-GFP [14] = tested on: hPIV3 Rec. JS-GFP
DenV = details: cited from earlier work
VSV New Jersey = experiment: microbe, parasite or virus in culture; format: cell-based, Vesicular Stomatitis virus
AHFV 200300001 = experiment: organism not typed; details: A549
[15] = tested on: EBOV Rec. Makona-ZSG (Ebola virus); experiment: in vitro; details: human
[16] = tested on: reporter and wild-type filo-, pneumo-, and paramyxoviruses
KFDV P9605 = experiment: microbe, parasite or virus in culture; details: Kyasanur Forest disease virus, A549
MARV Rec. Bat371-GFP [17] = experiment: organism not typed; details: Huh-7
NiV Rec. M-GFP2AM = experiment: microbe, parasite or virus in culture; details: Henipavirus nipahense, HeLa
[18] = tested on: MARV Rec. Bat371-GFP (Marburg virus); experiment: in vitro; details: human
RVFV Rec. ZH501-GFP = experiment: microbe, parasite or virus in culture; format: cell-based, Rift Valley Fever virus
NiV Rec. M-Luc2AM [19] = experiment: microbe, parasite or virus in culture; details: Henipavirus nipahense, HeLa
NiV B-2004 = experiment: microbe, parasite or virus in culture; details: Henipavirus nipahense
OHFV Bogoluvovska = experiment: microbe, parasite or virus in culture; details: Omsk hemorrhagic fever virus, A549
[20] = tested on: EBOV Rec. Mayinga-Gluc (Ebola virus); experiment: in vitro; details: human
[21] = tested on: NiV Rec. M-GFP2AM (Nipah virus); experiment: in vitro; details: human
MV Rec. rMV^EZGFP(3) [22] = experiment: microbe, parasite or virus in culture; details: Measles morbillivirus, HeLa
LASV Josiah = experiment: microbe, parasite or virus in culture; details: Mammarenavirus lassaense, Huh-7
EBOV Makona [23] = tested on: EBOV Makona
MV Rec. rMV^EZGFP(3) [24] = tested on: MV Rec. rMV^EZGFP(3)
MARV Rec. Bat371-GFP [25] = tested on: MARV Rec. Bat371-GFP
[26] = Cell viability assay (CellTiter-Glo 2.0), HeLa; details: human, uninfected HeLa cells
[27] = not tested in this paper, no reference given
[28] = Vesicular stomatitis virus, HeLa

CCC(CC)COC(=O)[C@H](C)N[P@](=O)(OC[C@H]1O[C@@](C#N)(c2ccc3c(N)ncnn23)[C@H](O)[C@@H]1O)Oc1ccccc1 [GS-5734]
EC50 (EBOV Rec. Makona-ZSG [1]): 14 nM
EC50 (EBOV Rec. Mayinga-Gluc): 20.7 nM
EC90 (EBOV Rec. Mayinga-Gluc): 53 nM
selectivity ratio [2]: 10
selectivity ratio (NiV M-1999 (Nipah virus)): 180
selectivity ratio [3]: 666
CC50 at 72 h [4]: > 10000 nM
EC50 (EBOV Makona [5]; Macrophage): 3.4 nM
EC90 (EBOV Makona [5]; Macrophage): 19 nM
EC50 (MuV IA 2006): 790 nM
EC90 (MuV IA 2006): 3400 nM
reduction in virus yield (NiV M-1999 [6]): greater than 4
selectivity ratio [7]: 395
EC50 (NiV Rec. M-Luc2AM [8]): 45 nM
EC50 (hPIV3 Rec. JS-GFP [9]): 17.7 ± 3.7 nM
EC90 (hPIV3 Rec. JS-GFP [9]): 350 nM
EC50 (EBOV Rec. Makona-ZSG [10]): 13.6 ± 1 nM
EC90 (EBOV Rec. Makona-ZSG [10]): 45 nM
EC50 (NiV M-1999 [11]): 47 nM
EC90 (NiV M-1999 [11]): 83 nM
selectivity ratio [12]: 151
inhibition of virus (HCV; [27]): inhibited
EC90 (TBEV Hypr): 3500 nM
selectivity ratio [13]: 184
EC50 (hPIV3 Rec. JS-GFP [14]): 18 nM
inhibition of virus (DenV; [27]): inhibited
EC50 (VSV New Jersey): not inhibited; also recorded: No inhibition
EC50 (VSV New Jersey; [28]): > 10000 nM
EC50 (AHFV 200300001): 4150 ± 480 nM
EC90 (AHFV 200300001): 17600 nM
selectivity ratio [15]: 714
EC50 lower than the 50% cytotoxic concentrations [16]: ≥ 150 fold
higher antiviral potency relative to Nuc [16]: 10 to 100 fold
EC90 (KFDV P9605): 3400 nM
EC50 (MARV Rec. Bat371-GFP [17]): 13.9 ± 0.3 nM
EC90 (MARV Rec. Bat371-GFP [17]): 47 nM
EC50 (NiV Rec. M-GFP2AM): 28.7 nM
EC90 (NiV Rec. M-GFP2AM): 53 nM
selectivity ratio [18]: 714
EC50 (RVFV Rec. ZH501-GFP): minimal to no antiviral activity; also recorded: No inhibition
EC50 (RVFV Rec. ZH501-GFP; Rift Valley fever virus, Huh-7): > 10000 nM
EC50 (NiV Rec. M-Luc2AM [19]): 44.9 ± 1.8 nM
EC90 (NiV Rec. M-Luc2AM [19]): 126 nM
EC50 (NiV B-2004): 32.4 ± 2.7 nM
EC90 (NiV B-2004): 106 nM
EC90 (OHFV Bogoluvovska): 3900 nM
selectivity ratio [20]: 476
selectivity ratio [21]: 286
EC50 (MV Rec. rMV^EZGFP(3) [22]): 36.5 ± 28 nM
EC90 (MV Rec. rMV^EZGFP(3) [22]): 73 nM
EC50 (LASV Josiah): 4490 ± 480 nM
EC90 (LASV Josiah): 5100 nM
EC50 (EBOV Makona [23]): 3 nM
reduction in virus yield (EBOV Makona [23]): greater than 4
EC50 (MV Rec. rMV^EZGFP(3) [24]): 37 nM
EC50 (MARV Rec. Bat371-GFP [25]): 14 nM
CC50 at 72 h [26]: 8300 nM

N#C[C@@]1(c2ccc3c(N)ncnn23)O[C@H](CO)[C@@H](O)[C@H]1O [Nuc]
EC50 (EBOV Rec. Makona-ZSG [1]): 1300 nM
EC50 (EBOV Rec. Mayinga-Gluc): 3100 nM
EC90 (EBOV Rec. Mayinga-Gluc): 11000 nM
selectivity ratio [2]: 5
selectivity ratio (NiV M-1999 (Nipah virus)): 102
selectivity ratio [3]: 50
CC50 at 72 h [4]: > 50000 nM
EC50 (EBOV Makona [5]; Huh-7): 1020 nM
EC90 (EBOV Makona [5]; Huh-7): 2500 nM
EC50 (MuV IA 2006): 7000 to 12000 nM
EC90 (MuV IA 2006): 26300 nM
reduction in virus yield (NiV M-1999 [6]): greater than 5
selectivity ratio [7]: 79
EC50 (NiV Rec. M-Luc2AM [8]): 1500 nM
EC50 (hPIV3 Rec. JS-GFP [9]): 520 ± 80 nM
EC90 (hPIV3 Rec. JS-GFP [9]): 1000 nM
EC50 (EBOV Rec. Makona-ZSG [10]): 1280 ± 140 nM
EC90 (EBOV Rec. Makona-ZSG [10]): 3300 nM
EC90 (NiV M-1999 [11]; HeLa): 1400 nM
selectivity ratio [12]: 31
antiviral activity (active or not) (HCV): active
antiviral activity (active or not) (HCV; listed as GS-441524): shown to have activity
EC50 (TBEV Hypr): 51200 nM
EC90 (TBEV Hypr): > 150000 nM
selectivity ratio [13]: 33
EC50 (hPIV3 Rec. JS-GFP [14]): 510 nM
antiviral activity (active or not) (DenV): active
antiviral activity (active or not) (DenV; listed as GS-441524): shown to have activity
EC50 (VSV New Jersey): little to no antiviral activity; also recorded: No inhibition
EC50 (VSV New Jersey; [28]): > 50000 nM
EC50 (AHFV 200300001): 49900 ± 2060 nM
EC90 (AHFV 200300001): > 150000 nM
selectivity ratio [15]: 38
EC50 lower than the 50% cytotoxic concentrations [16]: at least 16 fold
EC50 (KFDV P9605): 46300 nM
EC90 (KFDV P9605): > 350000 nM
EC50 (MARV Rec. Bat371-GFP [17]): 1860 ± 130 nM
EC90 (MARV Rec. Bat371-GFP [17]): 4600 nM
EC50 (NiV Rec. M-GFP2AM): 2230 ± 1400 nM
EC90 (NiV Rec. M-GFP2AM): 4000 nM
selectivity ratio [18]: 26
EC50 (RVFV Rec. ZH501-GFP): little to no antiviral activity; also recorded: No inhibition
EC50 (RVFV Rec. ZH501-GFP; Rift Valley fever virus, Huh-7): > 50000 nM
EC50 (NiV Rec. M-Luc2AM [19]): 1570 ± 780 nM
EC90 (NiV Rec. M-Luc2AM [19]): 5700 nM
EC50 (NiV B-2004): 2460 nM
EC50 (OHFV Bogoluvovska): 50600 nM
EC90 (OHFV Bogoluvovska): > 350000 nM
selectivity ratio [20]: 16
selectivity ratio [21]: 22
EC50 (MV Rec. rMV^EZGFP(3) [22]): 990 ± 360 nM
EC90 (MV Rec. rMV^EZGFP(3) [22]): 2600 nM
EC50 (LASV Josiah): > 50000 nM
EC50 (EBOV Makona [23]): 1000 nM
reduction in virus yield (EBOV Makona [23]): greater than 5
EC50 (MV Rec. rMV^EZGFP(3) [24]): 1000 nM
EC50 (MARV Rec. Bat371-GFP [25]): 1900 nM
CC50 at 72 h [26]: > 50000 nM
